{
  "source": "paper PMC8429728",
  "about": "“TNK1 is a ubiquitin-binding and 14-3-3-regulated kinase that can be targeted to block tumor growth” (Nature Communications, 2021)",
  "assay_in_all_cases": "biochemical",
  "parameters_in_all_cases": "Reaction Biology 371-kinase panel at Km ATP, per cent enzyme activity relative to DMSO, single dose in duplicate",
  "key": {"[1]": {"target": "T1, PKG1b (Homo sapiens, UniProt Q13976)", "T1 construct": "gene PRKG1; isoform beta", "details": "duplicate measurements, Km ATP", "procedure,_shortened": "(§1)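 Percent kinase activity relative to vehicle (DMSO) is reported for a 371-kinase in vitro panel at 300 nM compound; IC50 values derive from variable-slope sigmoidal fits with the lower plateau fixed at 0.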"}, "[2]": {"target": "STK32B/YANK2 (Homo sapiens, UniProt Q9NY57)", "details": "duplicate measurements, Km ATP", "procedure,_shortened": "as §1"}, "[3]": {"target": "FGFR1 (Homo sapiens, UniProt P11362)", "details": "duplicate measurements, Km ATP", "procedure,_shortened": "as §1"}, "[4]": {"target": "CLK1 (Homo sapiens, UniProt P49759)", "details": "duplicate measurements, Km ATP", "procedure,_shortened": "as §1"}, "[5]": {"target": "T2, BRK (Homo sapiens, UniProt Q13882)", "T2 construct": "gene PTK6", "T2 sequence (Q13882 whole entry)": "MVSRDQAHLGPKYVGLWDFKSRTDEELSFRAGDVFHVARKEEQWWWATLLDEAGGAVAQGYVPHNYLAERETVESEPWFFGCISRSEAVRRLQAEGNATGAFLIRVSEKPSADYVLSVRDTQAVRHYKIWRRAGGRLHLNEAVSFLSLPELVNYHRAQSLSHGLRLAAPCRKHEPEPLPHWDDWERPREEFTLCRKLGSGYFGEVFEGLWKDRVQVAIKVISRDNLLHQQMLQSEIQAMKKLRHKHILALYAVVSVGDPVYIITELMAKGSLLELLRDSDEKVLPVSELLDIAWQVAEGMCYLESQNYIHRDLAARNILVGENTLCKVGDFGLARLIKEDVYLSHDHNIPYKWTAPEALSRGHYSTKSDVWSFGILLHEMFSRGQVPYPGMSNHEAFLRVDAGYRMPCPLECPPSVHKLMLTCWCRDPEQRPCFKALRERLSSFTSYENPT", "details": "duplicate measurements, Km ATP", "procedure,_shortened": "as §1"}, "[6]": {"target": "FER (Homo sapiens, UniProt P16591)", "details": "duplicate measurements, Km ATP", "procedure,_shortened": "as §1"}, "[7]": {"target": "WNK3 (Homo sapiens, UniProt Q9BYP7)", "sequence (Q9BYP7 whole entry)": "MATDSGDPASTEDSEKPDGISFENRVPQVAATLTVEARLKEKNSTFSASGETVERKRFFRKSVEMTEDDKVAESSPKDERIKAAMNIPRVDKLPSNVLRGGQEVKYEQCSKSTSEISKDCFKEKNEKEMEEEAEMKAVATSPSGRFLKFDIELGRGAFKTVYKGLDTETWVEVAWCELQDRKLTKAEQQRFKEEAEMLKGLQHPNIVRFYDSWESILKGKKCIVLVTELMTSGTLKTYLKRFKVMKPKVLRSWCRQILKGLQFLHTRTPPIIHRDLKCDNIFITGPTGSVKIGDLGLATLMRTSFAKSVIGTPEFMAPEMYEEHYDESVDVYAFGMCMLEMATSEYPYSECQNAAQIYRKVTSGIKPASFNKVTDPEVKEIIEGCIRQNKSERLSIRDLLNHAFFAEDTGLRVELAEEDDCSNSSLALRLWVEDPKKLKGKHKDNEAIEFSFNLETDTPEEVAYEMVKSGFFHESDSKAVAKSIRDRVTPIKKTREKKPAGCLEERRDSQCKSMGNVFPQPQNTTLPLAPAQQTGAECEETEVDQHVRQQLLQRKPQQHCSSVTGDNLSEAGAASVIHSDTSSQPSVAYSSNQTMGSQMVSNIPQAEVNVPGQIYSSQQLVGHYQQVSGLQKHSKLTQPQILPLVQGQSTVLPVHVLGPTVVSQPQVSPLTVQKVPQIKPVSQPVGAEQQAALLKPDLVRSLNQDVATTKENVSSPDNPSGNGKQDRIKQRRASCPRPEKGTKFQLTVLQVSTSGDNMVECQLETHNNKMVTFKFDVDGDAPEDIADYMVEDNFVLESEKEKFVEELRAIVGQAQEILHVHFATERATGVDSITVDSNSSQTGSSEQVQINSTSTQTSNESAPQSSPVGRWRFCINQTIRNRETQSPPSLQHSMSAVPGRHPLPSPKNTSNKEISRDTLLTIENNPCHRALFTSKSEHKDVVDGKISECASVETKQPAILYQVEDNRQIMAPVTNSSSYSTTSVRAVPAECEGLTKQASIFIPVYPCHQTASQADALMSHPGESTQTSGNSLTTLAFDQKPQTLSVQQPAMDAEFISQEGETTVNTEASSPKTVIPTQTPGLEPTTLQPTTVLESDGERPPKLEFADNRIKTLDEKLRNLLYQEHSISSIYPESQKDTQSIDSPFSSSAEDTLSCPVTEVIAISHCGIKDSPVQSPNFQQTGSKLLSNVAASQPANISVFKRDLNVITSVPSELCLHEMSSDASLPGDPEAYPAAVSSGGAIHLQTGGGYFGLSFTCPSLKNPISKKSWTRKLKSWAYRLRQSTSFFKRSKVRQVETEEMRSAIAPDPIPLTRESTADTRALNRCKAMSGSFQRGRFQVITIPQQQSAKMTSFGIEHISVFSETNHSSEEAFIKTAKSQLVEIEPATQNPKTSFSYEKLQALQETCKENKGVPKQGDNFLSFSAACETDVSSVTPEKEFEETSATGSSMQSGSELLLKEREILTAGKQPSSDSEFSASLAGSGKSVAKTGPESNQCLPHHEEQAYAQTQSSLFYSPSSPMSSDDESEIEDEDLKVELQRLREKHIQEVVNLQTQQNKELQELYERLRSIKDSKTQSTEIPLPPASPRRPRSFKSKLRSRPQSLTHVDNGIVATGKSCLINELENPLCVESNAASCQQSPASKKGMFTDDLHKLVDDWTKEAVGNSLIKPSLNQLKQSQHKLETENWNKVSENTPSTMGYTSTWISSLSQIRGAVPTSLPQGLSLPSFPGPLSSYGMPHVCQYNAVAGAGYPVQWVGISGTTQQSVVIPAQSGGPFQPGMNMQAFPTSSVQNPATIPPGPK", "details": "duplicate measurements, Km ATP", "procedure,_shortened": "as §1"}, "[8]": {"target": "RET (Homo sapiens, UniProt P07949)", "sequence (P07949 whole entry)": "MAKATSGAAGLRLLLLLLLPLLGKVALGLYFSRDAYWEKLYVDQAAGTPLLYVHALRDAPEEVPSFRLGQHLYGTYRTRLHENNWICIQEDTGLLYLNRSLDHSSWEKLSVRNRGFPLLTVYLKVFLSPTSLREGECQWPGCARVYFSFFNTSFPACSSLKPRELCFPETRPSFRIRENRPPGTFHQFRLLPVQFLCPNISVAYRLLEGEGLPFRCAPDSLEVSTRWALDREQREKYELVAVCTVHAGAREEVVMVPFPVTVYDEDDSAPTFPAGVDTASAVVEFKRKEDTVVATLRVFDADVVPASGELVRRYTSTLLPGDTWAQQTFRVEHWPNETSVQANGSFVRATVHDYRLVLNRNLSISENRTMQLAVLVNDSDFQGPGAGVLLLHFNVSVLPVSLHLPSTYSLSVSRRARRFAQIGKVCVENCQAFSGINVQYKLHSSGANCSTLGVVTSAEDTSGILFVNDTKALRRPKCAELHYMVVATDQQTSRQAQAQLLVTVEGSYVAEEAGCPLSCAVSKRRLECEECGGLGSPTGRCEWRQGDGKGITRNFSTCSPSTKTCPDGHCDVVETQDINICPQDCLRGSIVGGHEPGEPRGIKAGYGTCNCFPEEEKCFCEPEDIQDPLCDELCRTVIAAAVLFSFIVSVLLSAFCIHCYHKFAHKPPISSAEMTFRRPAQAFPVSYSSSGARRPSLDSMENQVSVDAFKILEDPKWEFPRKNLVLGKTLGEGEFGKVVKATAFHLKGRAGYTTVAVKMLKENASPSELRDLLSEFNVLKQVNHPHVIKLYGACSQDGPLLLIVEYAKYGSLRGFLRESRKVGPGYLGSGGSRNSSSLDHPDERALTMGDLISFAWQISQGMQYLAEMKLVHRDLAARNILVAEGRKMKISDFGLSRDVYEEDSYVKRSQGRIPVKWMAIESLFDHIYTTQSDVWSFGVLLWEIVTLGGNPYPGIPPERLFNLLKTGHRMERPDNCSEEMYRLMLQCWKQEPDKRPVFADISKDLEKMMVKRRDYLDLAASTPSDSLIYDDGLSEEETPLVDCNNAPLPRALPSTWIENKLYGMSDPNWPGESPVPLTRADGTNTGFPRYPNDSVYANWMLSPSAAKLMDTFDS", "details": "duplicate measurements, Km ATP", "procedure,_shortened": "as §1"}, "[9]": {"target": "RIPK2 (Homo sapiens, UniProt O43353)", "details": "duplicate measurements, Km ATP", "procedure,_shortened": "as §1"}, "[10]": {"target": "NLK (Homo sapiens, UniProt Q9UBE8)", "sequence (Q9UBE8 whole entry)": "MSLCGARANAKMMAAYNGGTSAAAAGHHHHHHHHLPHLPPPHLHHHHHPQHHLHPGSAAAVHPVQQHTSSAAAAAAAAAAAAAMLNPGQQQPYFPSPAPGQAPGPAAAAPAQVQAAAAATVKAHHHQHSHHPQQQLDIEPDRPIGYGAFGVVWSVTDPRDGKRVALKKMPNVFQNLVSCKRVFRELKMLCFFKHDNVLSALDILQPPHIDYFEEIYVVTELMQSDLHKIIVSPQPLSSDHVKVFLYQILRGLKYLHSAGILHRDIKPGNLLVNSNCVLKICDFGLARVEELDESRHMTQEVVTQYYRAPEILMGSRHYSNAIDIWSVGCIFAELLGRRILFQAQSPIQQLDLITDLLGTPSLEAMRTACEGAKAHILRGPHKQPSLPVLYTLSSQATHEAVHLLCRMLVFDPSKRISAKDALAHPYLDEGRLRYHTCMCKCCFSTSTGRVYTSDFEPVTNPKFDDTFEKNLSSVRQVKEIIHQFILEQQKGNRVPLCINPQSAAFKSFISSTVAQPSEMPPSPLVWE", "details": "duplicate measurements, Km ATP", "procedure,_shortened": "as §1"}, "[11]": {"target": "T3, CK1d (Homo sapiens, UniProt P48730)", "T3 construct": "gene CSNK1D", "details": "duplicate measurements, Km ATP", "procedure,_shortened": "as §1"}, "[12]": {"target": "PKN1/PRK1 (Homo sapiens, UniProt Q16512)", "details": "duplicate measurements, Km ATP", "procedure,_shortened": "as §1"}, "[13]": {"target": "T4, PKCb1 (Homo sapiens, UniProt P05771)", "T4 construct": "gene PRKCB; isoform beta I", "details": "duplicate measurements, Km ATP", "procedure,_shortened": "as §1"}, "[14]": {"target": "SRPK1 (Homo sapiens, UniProt Q96SB4)", "details": "duplicate measurements, Km ATP", "procedure,_shortened": "as §1"}, "[15]": {"target": "EPHB4 (Homo sapiens, UniProt P54760)", "sequence (P54760 whole entry)": "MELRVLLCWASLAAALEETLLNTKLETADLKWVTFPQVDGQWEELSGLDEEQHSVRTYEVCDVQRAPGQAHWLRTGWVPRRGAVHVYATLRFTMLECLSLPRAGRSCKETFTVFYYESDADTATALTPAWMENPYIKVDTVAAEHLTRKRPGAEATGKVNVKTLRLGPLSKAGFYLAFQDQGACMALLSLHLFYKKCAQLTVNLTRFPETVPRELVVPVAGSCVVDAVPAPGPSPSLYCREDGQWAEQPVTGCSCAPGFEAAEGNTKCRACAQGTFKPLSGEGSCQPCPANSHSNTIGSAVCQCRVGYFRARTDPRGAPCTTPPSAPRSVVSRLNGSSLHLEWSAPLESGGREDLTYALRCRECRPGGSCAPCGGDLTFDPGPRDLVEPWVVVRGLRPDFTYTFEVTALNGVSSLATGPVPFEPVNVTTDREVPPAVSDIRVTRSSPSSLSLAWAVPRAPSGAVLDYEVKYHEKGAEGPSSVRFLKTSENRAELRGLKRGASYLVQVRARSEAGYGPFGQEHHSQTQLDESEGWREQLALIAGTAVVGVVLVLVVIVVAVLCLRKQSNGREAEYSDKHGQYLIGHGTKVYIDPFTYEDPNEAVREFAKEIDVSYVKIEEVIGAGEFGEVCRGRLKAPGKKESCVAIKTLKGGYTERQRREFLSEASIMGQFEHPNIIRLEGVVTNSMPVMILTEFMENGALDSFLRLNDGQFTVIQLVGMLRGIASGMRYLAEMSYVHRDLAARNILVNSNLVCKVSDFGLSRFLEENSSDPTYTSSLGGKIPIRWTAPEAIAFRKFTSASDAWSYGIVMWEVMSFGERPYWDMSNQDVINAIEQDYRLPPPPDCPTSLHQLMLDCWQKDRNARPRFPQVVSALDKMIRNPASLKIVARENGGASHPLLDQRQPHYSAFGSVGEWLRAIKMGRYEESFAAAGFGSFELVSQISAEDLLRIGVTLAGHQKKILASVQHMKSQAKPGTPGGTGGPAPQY", "details": "duplicate measurements, Km ATP", "procedure,_shortened": "as §1"}, "[16]": {"target": "MRCKb/CDC42BPB (Homo sapiens, UniProt Q9Y5S2)", "details": "duplicate measurements, Km ATP", "procedure,_shortened": "as §1"}, "[17]": {"target": "NEK4 (Homo sapiens, UniProt P51957)", "details": "duplicate measurements, Km ATP; read-out: % Enzyme Activity (relative to DMSO controls) / TP-0005801 (0.3µM) / Data 1", "procedure,_shortened": "as §1"}, "[18]": {"target": "Haspin (Homo sapiens, UniProt Q8TF76)", "details": "duplicate measurements, Km ATP", "procedure,_shortened": "as §1"}, "[19]": {"target": "NEK5 (Homo sapiens, UniProt Q6P3R8)", "details": "duplicate measurements, Km ATP", "procedure,_shortened": "as §1"}, "[20]": {"target": "T5, CK2a (Homo sapiens, UniProt P68400)", "T5 construct": "gene CSNK2A1", "details": "duplicate measurements, Km ATP", "procedure,_shortened": "as §1"}, "[21]": {"details": "read-out: % Enzyme Activity (relative to DMSO controls) / TP-0005801 (0.3µM) / Data 1"}, "[22]": {"details": "read-out: % Enzyme Activity (relative to DMSO controls) / TP-0005801 (0.3µM) / Data 2"}},
  "note": "Like-named read-outs stand apart in the source and are kept apart here.",
  "data": [
    {"smiles": "COc1cc(N2CCN(C)CC2)c(C)cc1Nc1ncc(Br)c(Nc2cccnc2N(C)C)n1", "note": "[TP-5801]", "values": [
      {"measurement": "remaining activity at 0.3 µM", "setting": "[1]; [21]", "value": 51, "unit": "%"},
      {"measurement": "remaining activity at 0.3 µM", "setting": "[1]; [22]", "value": 50, "unit": "%"},
      {"measurement": "remaining activity at 0.3 µM", "setting": "[2]; [21]", "value": 96.4, "unit": "%"},
      {"measurement": "remaining activity at 0.3 µM", "setting": "[2]; [22]", "value": 94.8, "unit": "%"},
      {"measurement": "remaining activity at 0.3 µM", "setting": "[3]; [21]", "value": 83.9, "unit": "%"},
      {"measurement": "remaining activity at 0.3 µM", "setting": "[3]; [22]", "value": 83.3, "unit": "%"},
      {"measurement": "remaining activity at 0.3 µM", "setting": "[4]; [21]", "value": 11.9, "unit": "%"},
      {"measurement": "remaining activity at 0.3 µM", "setting": "[4]; [22]", "value": 11.7, "unit": "%"},
      {"measurement": "remaining activity at 0.3 µM", "setting": "[5]; [21]", "value": 78, "unit": "%"},
      {"measurement": "remaining activity at 0.3 µM", "setting": "[5]; [22]", "value": 76.5, "unit": "%"},
      {"measurement": "remaining activity at 0.3 µM", "setting": "[6]; [21]", "value": 11.7, "unit": "%"},
      {"measurement": "remaining activity at 0.3 µM", "setting": "[6]; [22]", "value": 11.4, "unit": "%"},
      {"measurement": "remaining activity at 0.3 µM", "setting": "[7]; [21]", "value": 87.5, "unit": "%"},
      {"measurement": "remaining activity at 0.3 µM", "setting": "[7]; [22]", "value": 86.5, "unit": "%"},
      {"measurement": "remaining activity at 0.3 µM", "setting": "[8]; [21]", "value": 83.2, "unit": "%"},
      {"measurement": "remaining activity at 0.3 µM", "setting": "[8]; [22]", "value": 81.2, "unit": "%"},
      {"measurement": "remaining activity at 0.3 µM", "setting": "[9]; [21]", "value": 95.8, "unit": "%"},
      {"measurement": "remaining activity at 0.3 µM", "setting": "[9]; [22]", "value": 93.9, "unit": "%"},
      {"measurement": "remaining activity at 0.3 µM", "setting": "[10]; [21]", "value": 92.3, "unit": "%"},
      {"measurement": "remaining activity at 0.3 µM", "setting": "[10]; [22]", "value": 85.8, "unit": "%"},
      {"measurement": "remaining activity at 0.3 µM", "setting": "[11]; [21]", "value": 101, "unit": "%"},
      {"measurement": "remaining activity at 0.3 µM", "setting": "[11]; [22]", "value": 98.4, "unit": "%"},
      {"measurement": "remaining activity at 0.3 µM", "setting": "[12]; [21]", "value": 91.8, "unit": "%"},
      {"measurement": "remaining activity at 0.3 µM", "setting": "[12]; [22]", "value": 90.3, "unit": "%"},
      {"measurement": "remaining activity at 0.3 µM", "setting": "[13]; [21]", "value": 90.9, "unit": "%"},
      {"measurement": "remaining activity at 0.3 µM", "setting": "[13]; [22]", "value": 90.2, "unit": "%"},
      {"measurement": "remaining activity at 0.3 µM", "setting": "[14]; [21]", "value": 96.5, "unit": "%"},
      {"measurement": "remaining activity at 0.3 µM", "setting": "[14]; [22]", "value": 93.9, "unit": "%"},
      {"measurement": "remaining activity at 0.3 µM", "setting": "[15]; [21]", "value": 103, "unit": "%"},
      {"measurement": "remaining activity at 0.3 µM", "setting": "[15]; [22]", "value": 102, "unit": "%"},
      {"measurement": "remaining activity at 0.3 µM", "setting": "[16]; [21]", "value": 99.2, "unit": "%"},
      {"measurement": "remaining activity at 0.3 µM", "setting": "[16]; [22]", "value": 98, "unit": "%"},
      {"measurement": "remaining activity at 0.3 µM", "setting": "[17]", "value": 122, "unit": "%"},
      {"measurement": "remaining activity at 0.3 µM", "setting": "[18]; [21]", "value": 88.2, "unit": "%"},
      {"measurement": "remaining activity at 0.3 µM", "setting": "[18]; [22]", "value": 86.9, "unit": "%"},
      {"measurement": "remaining activity at 0.3 µM", "setting": "[19]; [21]", "value": 98.5, "unit": "%"},
      {"measurement": "remaining activity at 0.3 µM", "setting": "[19]; [22]", "value": 96.9, "unit": "%"},
      {"measurement": "remaining activity at 0.3 µM", "setting": "[20]; [21]", "value": 42.4, "unit": "%"},
      {"measurement": "remaining activity at 0.3 µM", "setting": "[20]; [22]", "value": 41.8, "unit": "%"}
    ]}
  ]
}
